This assay has as its target T1, γ-secretase (Homo sapiens, UniProt P49768).
T1 construct: endogenous in cells; host or cells: HeLa cells
Kind of assay: γ-secretase luciferase reporter assay (Gal4VP16 inducer constructs). Format: cell-based. The settings on record: lysed after 16 hrs; for nuclear translocation of the inducer fragment (luciferase activity), APP: APP-Gal4VP16 inducer in Hela cells; for nuclear translocation of the inducer fragment (luciferase activity), Notch: NotchΔE-Gal4VP16 inducer in Hela cells. Also noted: dose or concentration left out as unconfirmed. From the text: In wild-type hippocampal neurons, TLN localizes to the plasmalemma whereas in 30% of PS1−/− neurons, TLN additionally accumulates in large somatic structures, the identity of which remained elusive (Annaert et al., 2001). […] Therefore we tested whether TLN is a γ-secretase substrate. In 15 day old PS1−/− hippocampal cultures we could not detect any TLN C-terminal fragment (CTF) as apposed to APP-CTF that readily accumulate. Even upon Semliki Forest Virus (SFV)-induced overexpression, no TLN-CTF was detected. Since no putative mechanism of shedding of the TLN ectodomain is known, we generated a TLNΔE that could serve as a potential γ-secretase substrate. No intracellular domain fragments were however detected indicating the absence of γ-secretase cleavage. […] Release of a potential intracellular domain of TLN can be measured via the activity of luciferase. […] To investigate whether the TLN transmembrane domain could be a γ-secretase substrate in the context of the APP protein, we swapped the transmembrane regions of TLN and APP to create an APP/TLNTMR-chimaera. Even in this case no activity could be detected. Therefore we conclude that TLN is most likely not a γ-secretase substratum.
pSFV constructs encoding human APP, murine TLN and TLNΔE have been described (Annaert et al., 2001). APP and NotchΔE were cloned into the EcoRV site in front of the Gal4VP16 sequence in pIPAdApt vector. A construct encoding 10 aa of the ectodomain, the transmembrane and cytosolic domains of TLN was obtained by PCR and ligated in pGEMT containing the TLN signal peptide (SP). SP-TLNΔE was next cloned into pIPAdApt and GAL 4VP16 was inserted resulting in a pIPAdApt-SP-TLNΔE-Gal4-VP16 construct. For the APP/TLNTMR chimaera, the coding region for APP-TMR was replaced by a PCR fragment encoding the TLN-TMR. Luciferase assay. Hela cells were transfected with 200 ng pFRluc plasmid (UAS-responsive luciferase construct, Stratagene) and 200 ng inducer plasmid using Fugene ([…]) and after 16 hrs lysed and assayed (Victor2, PerkinElmer).

The text below walks through data of patent US20080057054A1, “Modulation of Phagocytosis in Neurons” (Vlaams Interuniversitair Instituut Voor Biotechnol, priority 2004, published 2008).

`C[C@H](NC(=O)Cc1cc(F)cc(F)c1)C(=O)N[C@H](C(=O)OC(C)(C)C)c1ccccc1` [DAPT]: the “nuclear translocation of the inducer fragment (luciferase activity), APP” value was “strongly inhibited” and the “nuclear translocation of the inducer fragment (luciferase activity), Notch” value is reported as “strongly inhibited”.

`CC(C)C[C@H](NC(=O)[C@H](Cc1ccccc1)C[C@@H](O)[C@H](Cc1ccccc1)NC(=O)OC(C)(C)C)C(=O)N[C@@H](Cc1ccccc1)C(N)=O` [L685,458]: the “nuclear translocation of the inducer fragment (luciferase activity), APP” value was “strongly inhibited” and the “nuclear translocation of the inducer fragment (luciferase activity), Notch” value is on record as “strongly inhibited”.
